Two compounds from patent publication US20240228481A1, “NOVEL SULFONAMIDE SERIES OF QR2 INHIBITORS TO TACKLE OXIDATIVE STRESS AND COGNITIVE DECLINE” (CARMEL HAIFA UNIVERSITY ECONOMIC CORPORATION LTD., priority 2021, published 2024) can be followed below.

Where a name gives a salt, the structure may show the parent alone.

For data set [1], the system named is HEK293 cells. Put plainly: DCFDA ROS measurement in HEK293 cells after H2O2 insult. Type of data set: cell-based. The conditions noted are these: HEK293, 2 mM H2O2, 3 h. Here is the method:
FIGS. 8A-8C include vertical bar graphs showing QR2 inhibition reduces QR2 activity and ROS following induction of oxidative stress in HEK293 cells. (8A) QR2 activity is seen and is inhibited within HEK293 cells, amongst others, as measured by the rate of fluorescent co-factor oxidation. (8B) HEK293 cells seeded at 25μ 10^3 cells/well in 96-well plates were treated with 2 mM H2O2 with or without increasing doses or QR2 inhibitors for 3 h. Following incubation, the cells were stained with DCFDA for 45 min, and ROS levels were measured using a fluorimeter with ex/em 485/535 nm. N=3. (8C) ROS was measured in HCT cells, and similarly to HEK293, is reduced following QR2 inhibition. […] Data presented as mean±SEM. *p<0.05, ***p<0.0005.
The cells were harvested and resuspended in 1% clear medium (DMEM—with no phenol red, supplemented with 1% FBS, 1% L-Glutamine and 1% Penicillin-Streptomycin). A sterile poly-L-lysine-coated Nunc black, 96-well, clear flat-bottomed plate (Thermo Fisher Scientific) was seeded with 25,000 cells in 100 μL per well and incubated overnight. The next day, the medium was removed, and the wells carefully washed with PBS. […] The plate was then incubated in the dark at 37° C. for 3 h, before reading in a Tecan M200 Pro florescence microplate reader, using wavelengths Ex/Em=485 nm/535 nm.

The target in data set [2] is T1, QR2 (Homo sapiens, UniProt P16083).
T1 sequence (P16083 1-231): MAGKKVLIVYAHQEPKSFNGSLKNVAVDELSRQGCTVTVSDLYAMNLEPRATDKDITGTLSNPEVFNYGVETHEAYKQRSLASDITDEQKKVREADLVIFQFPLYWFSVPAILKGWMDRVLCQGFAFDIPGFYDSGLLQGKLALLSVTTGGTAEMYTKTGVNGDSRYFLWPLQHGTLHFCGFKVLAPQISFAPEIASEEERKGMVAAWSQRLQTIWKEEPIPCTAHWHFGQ
Put plainly: QR2 enzymatic activity assay (menadione/BNAH), absorbance readout at 350 nm. Type of data set: biochemical. On the set-up: purchased Sigma-Aldrich.

A short description of data set [3]: Cell toxicity assay (ATP depletion, CellTiter Glo). The note with it: human. A general note: In ATP-based viability assays light output follows the ATP content of the culture.
The test system of data set [4] is C57BL/6 mice. Put plainly: Delay fear conditioning after microinjection to CA1. Type of data set: in vivo, mouse. The note with it: 5 μM to CA1. An excerpt: Mice were anesthetized under 2% isoflurane, using an induction box (HME109, Highland Medical Equipment). They were placed in a stereotaxic device (Kopf Stereotaxic Alignment System, model 1900) under continuous 1% isoflurane anesthesia. Guide cannulas were implanted bilaterally to CA1 (from bregma: −1.9 mm AP, ±1.4 mm ML, −1.6 mm DV), cemented to the skull and fitted with 28-gauge dummy cannulas extending 0.2 mm beyond the tip of the 1.2 mm guide cannulas. The mice were allowed at least 7 days of recovery before experimentation. The QR2 inhibitor YB-808 was dissolved in DMSO and further diluted in saline to a final DMSO concentration of 0.1%. YB-537 was dissolved in saline (0.9%). A total of 1 μl of 5 μM of either compound or vehicle was infused bilaterally to CA1, via a 28-gauge infusion cannula projecting 0.4 mm (drug delivery depth bregma: −1.6 mm DV) beyond the guide cannula, connected by polyethylene tubing to a 10 μl syringe (Hamilton) over the course of 1 min. The injection cannula was kept for 60 s inside the guide cannula in order prevent osmotic seepage of the doses upward through the cannula tract. Twenty minutes following the injection, animals underwent delay fear conditioning. Following experimentation, animals were sacrificed, brains were excised and sectioned in coronal sections, and cannula implantation was validated by imaging. […]

Data set [5] is described as follows: Pharmacokinetic study, p.o. and i.v. Type of data set: in vivo, mouse.

For orientation: IC50 means the midpoint of a concentration-inhibition curve. A low value points to greater potency. As to `Cc1cccn2cc(-c3cccc(S(=O)(=O)N4CCC(C)CC4)c3)nc12` [YB-800], the “ROS levels after ROS insult (DCFDA)” value in data set [1] is given as “reduced in a dose dependent manner”. The compound also came in with an IC50 in data set [2] of 0.02 µM. In data set [3], this compound had an IC50 at 72 h of 78.4 µM.
What is called half-life is the time needed for the level to fall by half in the phase considered. In general, bioavailability refers to the share of a dose that reaches the circulation, judged against a reference dose that is usually intravenous. A high value points to much systemic uptake. On to `Cc1ccc(-c2cn3cccc(C)c3n2)cc1S(=O)(=O)N1CCNCC1` [YB-537, 8-methyl-2-(4-methyl-3-(piperazin-1-ylsulfonyl)phenyl)imidazo[1,2-a]pyridine hydrochloride], for which the baseline freezing in data set [4] came to 3.595±1.244%. The half-life in data set [5] (C57BL/6J, mouse, in vivo, po, p.o. 50 mg/kg, male mice, read-out: clearance rate half-life) was found to be 1 h. Besides, the brain clearance half-life in data set [5] (acute oral dosing, mouse brain) is recorded as approximately 1 h. For the same compound, in data set [5] (male, C57BL/6J, mouse, in vivo, po), the “peak concentration in brain” value was found to be 203 ng/g. Moreover, the bioavailability in data set [5] (p.o. 50 mg/kg, male mice) came out at 82%. In addition, in data set [5] (p.o., male mouse brain), the brain clearance half-life worked out at 1.06 h and the “time of peak in brain following p.o. administration” value was approximately 1 h.
